The NIST ThermoML archive (doi:10.1016/j.tca.2012.07.014)
± gives the expanded uncertainty stated by the source.

Settings: Crystal; visual observation

Normal melting temperature: 360.00 ± 1 °C
Compound: CO[C@@]12[C@H](COC(N)=O)C3=C(C(=O)C(C)=C(N)C3=O)N1C[C@@H]1N[C@@H]12 [ametycine]
